In PMC9865853, “Structural Insights Uncover the Specific Phosphoinositide Recognition by the PH1 Domain of Arap3” (International Journal of Molecular Sciences, 2023) one finds Kd data, which are given here for 2 compounds.

This experiment concerns the target T1, Arap3-PH1 (Homo sapiens, UniProt Q8WWN8).
T1 construct: first PH domain, residues 284-385, C-terminal 6xHis tag (pET22b), expressed in E. coli BL21(DE3)
T1 sequence (Q8WWN8 284-385): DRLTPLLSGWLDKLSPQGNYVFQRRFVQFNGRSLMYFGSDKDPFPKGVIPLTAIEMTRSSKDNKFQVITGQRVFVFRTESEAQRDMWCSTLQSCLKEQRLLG
Put plainly: SPR (Biacore T200, CM5, protein immobilised), one-site fit. The experiment is classed as binding.

By Kd is commonly meant the free concentration of one partner at which half of the binding sites on the other are occupied at equilibrium, for simple one-to-one binding. For the compound `CCCC(=O)OC[C@H](COP(=O)(O)O[C@H]1[C@H](O)[C@@H](OP(=O)(O)O)[C@H](OP(=O)(O)O)[C@@H](OP(=O)(O)O)[C@H]1O)OC(=O)CCC` [diC4-PI(3,4,5)P3], the dissociation constant (Kd) was approximately 11.4 µM.
`CCCC(=O)OC[C@H](COP(=O)(O)O[C@@H]1[C@H](O)[C@H](O)[C@@H](OP(=O)(O)O)[C@H](OP(=O)(O)O)[C@H]1O)OC(=O)CCC` [diC4-PI(4,5)P2] showed a Kd of approximately 61.7 µM.
